This is an account of results in patent US8088776B2 (Eli Lilly and Company, priority 2006, dated 2012).

Assay [1] deals with T1, 11β-HSD1 in primary human aortic smooth muscle cells (AoSMC) (Homo sapiens, UniProt P28845).
T1 construct: containing 12 ng/mL hTNFα to induce expression of 11β-HSD1; endogenous in cells; host or cells: primary human aortic smooth muscle cells (AoSMC), induced with hTNFα
Put plainly: Human Aortic Smooth Muscle Cell Assay (cortisone to cortisol conversion). The conditions noted are these: AoSMC induced with hTNFα; cortisol by time resolved immunoassay. The format is cell-based. As to the method: Human Aortic Smooth Muscle Cell Assay
Primary human aortic smooth muscle cells (AoSMC) are cultured in 5% FBS growth medium to a passage number of 6, then pelleted by centrifugation and resuspended at a density of 9×10^4 cells/mL in 0.5% FBS assay medium containing 12 ng/mL hTNFα to induce expression of 11β-HSD1. Cells are seeded into 96-well tissue culture assay plates at 100 μL/well (9×10^3 cells/well) and incubated for 48 hours at 37° C., 5% CO2. Following induction, cells are incubated for 4 hours at 37° C., 5% CO2 in assay medium containing test compounds then treated with 10 μL/well of 10 μM cortisone solubilized in assay medium, and incubated for 16 hours at 37° C., 5% CO2. Medium from each well is transferred to a plate for subsequent analysis of cortisol using a competitive fluorescence resonance time resolved immunoassay. In solution, an allophycocyanin (APC)-cortisol conjugate and free cortisol analyte compete for binding to a mouse anti-cortisol antibody/Europium (Eu)-anti mouse IgG complex. Higher levels of free cortisol result in diminishing energy transfer from the Europium-IgG to the APC-cortisol complex resulting in less APC fluorescence. Fluorescent intensities for Europium and APC are measured using a LJL Analyst AD. Europium and APC excitation is measured using 360 nm excitation and 615 nm and 650 nm emission filters respectively. Time resolved parameters for Europuium were 1000 μs integration time with a 200 μs delay. APC parameters are set at 150 μs integration time with a 50 μs delay. Fluorescent intensities measured for APC are modified by dividing by the Eu fluorescence (APC/Eu). This ratio is then used to determine the unknown cortisol concentration by interpolation using a cortisol standard curve fitted with a 4-parameter logistic equation. These concentrations are then used to determine compound activity by plotting concentration versus % inhibition, fitting with a 4-parameter curve and reporting the IC50.

Assay [2] relates to cortisone to cortisol conversion (11β-HSD1) in male C57BL/6 mice. The experiment in a line: Acute In Vivo Cortisone Conversion Assay. The note with it: oral dose of 10 mg/kg, cortisone challenge 16 hours post dose, serum cortisol. As to the method: Acute In Vivo Cortisone Conversion Assay
In general, compounds are dosed orally into mice, the mice are challenged with a subcutaneous injection of cortisone at a set timepoint after compound injection, and the blood of each animal is collected some time later. Separated serum is then isolated and analyzed for levels of cortisone and cortisol by LC-MS/MS, followed by calculation of mean cortisol and percent inhibition of each dosing group. Specifically, male C57BL/6 mice are obtained from Harlan Sprague Dawley at average weight of 25 grams. Exact weights are taken upon arrival and the mice randomized into groups of similar weights. Compounds are prepared in 1% w-w HEC, 0.25% w-w polysorbate 80, 0.05% w-w Dow Corning antifoam #1510-US at various doses based on assumed average weight of 25 grams. Compounds are dosed orally, 200 μl per animal, followed by a subcutaneous dose, 200 μl per animal, of 30 mg/kg cortisone at 1 to 24 hours post compound dose. At 10 minutes post cortisone challenge, each animal is euthanized for 1 minute in a CO2 chamber, followed by blood collection via cardiac puncture into serum separator tubes. Once fully clotted, tubes are spun at 2500×g, 4° C. for 15 minutes, the serum transferred to wells of 96-well plates (Corning Inc, Costar #4410, cluster tubes, 1.2 ml, polypropylene), and the plates are frozen at −20° C. until analysis by LC-MS/MS. […]

In assay [3] the target is recombinant human 11β-HSD type 1 enzyme (Homo sapiens, UniProt P28845). The experiment in a line: 11β-HSD Type 1 Enzyme Assay (NADPH fluorescence). The format is biochemical. The conditions noted are these: three hour incubation, read-out: Human 11-βHSD1 IC50. As to the method:
11β-HSD Type 1 Enzyme Assay
Human 11β-HSD type 1 activity is measured by assaying NADPH production by fluorescence assay. Solid compounds are dissolved in DMSO to a concentration of 10 mM. Twenty microliters of each are then transferred to a column of a 96-well polypropylene Nunc plate where they are further diluted 50-fold followed by subsequent two-fold titration, ten times across the plate with additional DMSO using a Tecan Genesis 200 automated system. Plates are then transferred to a Tecan Freedom 200 system with an attached Tecan Temo 96-well head and an Ultra 384 plate reader. Reagents are supplied in 96-well polypropylene Nunc plates and are dispensed individually into black 96-well Molecular Devices High Efficiency assay plates (40 μL/well capacity) in the following fashion: 9 μL/well of substrate (2.22 mM NADP, 55.5 μM Cortisol, 10 mM Tris, 0.25% Prionex, 0.1% Triton X100), 3 μL/well of water to compound wells or 3 μL to control and standard wells, 6 μL/well recombinant human 11β-HSD type 1 enzyme, 2 μL/well of compound dilutions. […] Final DMSO concentration is 0.5% for all compounds, controls and standards. […] Plates are then shaken once more for 15 seconds then placed into an Ultra 384 microplate reader (355EX/460EM) for detection of NADPH fluorescence.

T1 sequence (P28845 whole entry): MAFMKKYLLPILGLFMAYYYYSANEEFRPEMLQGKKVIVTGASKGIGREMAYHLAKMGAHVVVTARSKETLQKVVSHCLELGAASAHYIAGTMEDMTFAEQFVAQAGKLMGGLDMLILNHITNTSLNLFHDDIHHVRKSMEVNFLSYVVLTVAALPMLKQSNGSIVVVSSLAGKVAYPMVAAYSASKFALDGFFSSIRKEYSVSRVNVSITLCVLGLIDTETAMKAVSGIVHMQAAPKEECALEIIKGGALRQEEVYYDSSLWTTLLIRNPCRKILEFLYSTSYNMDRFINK
Sequence of recombinant human 11β-HSD type 1 enzyme (P28845 whole entry): as above

As for `COCCN(CCOC)C(=O)c1ccc(-c2cc(Cl)c(CC3CCN(C4CCCCC4)C3=O)c(Cl)c2)cc1` (stereo not shown) [Example 5], in assay [1], the IC50 (usually the concentration that gives 50% inhibition) turned out to be 6.4 nM.

For the molecule `O=C(c1ccc(-c2cc(Cl)c(C[C@@H]3CCN(C4CCOCC4)C3=O)c(Cl)c2)cc1)N1CCC(C(F)(F)F)CC1` [Example 95, (R)-3-[3,5-dichloro-4′-(4-trifluoromethyl-piperidine-1-carbonyl)-biphenyl-4-ylmethyl]-1-(tetrahydro-pyran-4-yl)-pyrrolidin-2-one], the “% Inhibition after 16 hours (dose of 10 (mg/kg))” value in assay [2] was found to be 80%. As to `O=C(c1ccc(-c2cc(Cl)c(C[C@@H]3CCN(C4CCOCC4)C3=O)c(Cl)c2)cc1)N1CCS(=O)(=O)CC1` [Example 99, (R)-3-[3,5-Dichloro-4′-(1,1-dioxo-116-thiomorpholine-4-carbonyl)-biphenyl-4-ylmethyl]-1-(tetrahydro-pyran-4-yl)-pyrrolidin-2-one], half-maximal inhibition in assay [1] (IC50) required 72.8 nM. In assay [1], `O=C(c1ccc(-c2cc(Cl)c(CC3CCN([C@H]4CC[C@@H](O)CC4)C3=O)c(Cl)c2)cc1)N1CCS(=O)(=O)CC1` (stereo partly drawn) [Example 74, 3-[3,5-Dichloro-4′-(1,1-dioxo-1-lambda*6*-thiomorpholine-4-carbonyl)-biphenyl-4-ylmethyl]-cis-1-(4-hydroxy-cyclohexyl)-pyrrolidin-2-one] showed an IC50 of 6 nM. Take `O=C(c1ccc(-c2cc(Cl)c(C[C@@H]3CCN(C4CC=CCC4)C3=O)c(Cl)c2)cc1)N1CCC(C(F)(F)F)CC1` (stereo partly drawn) [Example 92, (R)-1-cyclohex-3-enyl-3-[3,5-dichloro-4′-(4-trifluoromethyl-piperidine-1-carbonyl)-biphenyl-4-ylmethyl]-pyrrolidin-2-one]: the figures for the IC50 in assay [1] and in assay [3] were 36.8 nM and 633 nM, respectively. On to `O=C(c1ccc(-c2cc(Cl)c(CC3CCN(C4CCCCC4)C3=O)c(Cl)c2)cc1)N1CCN(CCF)CC1` (single isomer, unassigned) [Example 62, 1-cyclohexyl-3-{3,5-dichloro-4′-[4-(2-fluoro-ethyl)-piperazine-1-carbonyl]-biphenyl-4-ylmethyl}-pyrrolidin-2-one], for which the IC50 in assay [3] was determined as 115 nM. In assay [2], the “% Inhibition after 16 hours (dose of 10 (mg/kg))” value came out at 85%. As for `O=C(c1ccc(-c2cc(Cl)c(CC3CCN(C4CCCCC4)C3=O)c(Cl)c2)cc1)N1CCNCC1` (stereo not shown) [Example 49, 1-cyclohexyl-3-[3,5-dichloro-4′-(piperazine-1-carbonyl)-biphenyl-4-ylmethyl]-pyrrolidin-2-one], the IC50 in assay [1] stood at 11.4 nM. Same read-out and setting: next, `O=C(c1ccc(-c2cc(Cl)c(CC3CCN(C4CCCCC4)C3=O)c(Cl)c2)cc1)N1CCOCC1` (stereo not shown) [Example 4, 1-Cyclohexyl-3-[3,5-dichloro-4′-(morpholine-4-carbonyl)-biphenyl-4-ylmethyl]-pyrrolidin-2-one]: 4.3 nM.
